Laboratory results from patent publication US20260207578A1, “COMPOUND BASED ON SULFUR/OXYGEN SUBSTITUTED GLUTARIMIDE-BASED ISOINDOLINONE SKELETON AND USE THEREOF” (Gluetacs Therapeutics (Shanghai) Co., LTD., priority 2022, published 2026).

How the values were obtained:
[1] = target: T1, human Cereblon WT GST-tagged protein (Homo sapiens, UniProt Q96SW2); test: CRBN-binding affinity, HTRF (CEREBLON BINDING kit); settings: displacement of Thalidomide-Re reagent, 3 hours at room temperature
T1 construct: purchased CISBIO 64BDCRBNPEH
T1 sequence (Q96SW2 whole entry): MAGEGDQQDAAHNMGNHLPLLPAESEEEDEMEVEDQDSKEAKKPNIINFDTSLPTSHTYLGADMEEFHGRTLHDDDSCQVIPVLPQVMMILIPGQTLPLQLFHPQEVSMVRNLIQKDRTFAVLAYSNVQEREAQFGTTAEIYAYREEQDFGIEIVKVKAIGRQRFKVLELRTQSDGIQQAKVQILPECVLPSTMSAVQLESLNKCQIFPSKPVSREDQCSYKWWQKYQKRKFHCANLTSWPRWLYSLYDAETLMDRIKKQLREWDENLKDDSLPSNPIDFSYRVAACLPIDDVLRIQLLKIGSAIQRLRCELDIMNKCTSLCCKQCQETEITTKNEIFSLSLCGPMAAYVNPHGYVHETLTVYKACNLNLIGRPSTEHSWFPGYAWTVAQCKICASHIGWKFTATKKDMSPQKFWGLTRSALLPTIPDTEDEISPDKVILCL
Description: The CEREBLON BINDING kits (specification: 10,000 tests; product number: Catalog #64BDCRBNPEH; CISBIO company) was used to determine the CRBN binding ability of the compounds to be tested through a HTRF method (homogeneous time-resolved fluorescence). The specific methods are as follows: • 1. […] Then, 2.5 μL of human Cereblon WT GST-tagged protein solution was added to each well. Finally, 5 μL of the thoroughly mixed Thalidomide-Re reagent and GST Eu antibody working solution were added to each of the aforementioned wells. […] The blank control wells were sequentially added with 2.5 μL of diluent #9 (1×) solution, 2.5 μL of PROTAC binding buffer, and 5 μL of thoroughly mixed Thalidomide-Re reagent and GST Eu antibody working solution. • 4.
OD 620 nmcompound is the absorbance value of each well of the compounds to be tested of the present disclosure at an emission wavelength of 620 nm. […] OD 620 nmcontrol is the absorbance value of the blank control well at an emission wavelength of 620 nm. […] OD 620 nmStd0 is the absorbance value of the solvent control well at an emission wavelength of 620 nm.

[2] = target: T2, Wee1 (Homo sapiens, UniProt P30291+Q96SW2); test: Western-blot assay, substrate protein in hPBMCs; assay type: cell-based; settings: hPBMC cells, 24 hours, tested at 50 nM and 500 nM, table does not say which
T2 construct: endogenous in cells; host or cells: human PBMCs (Milecell Biotechnologies)
T2 sequence (P30291 whole entry): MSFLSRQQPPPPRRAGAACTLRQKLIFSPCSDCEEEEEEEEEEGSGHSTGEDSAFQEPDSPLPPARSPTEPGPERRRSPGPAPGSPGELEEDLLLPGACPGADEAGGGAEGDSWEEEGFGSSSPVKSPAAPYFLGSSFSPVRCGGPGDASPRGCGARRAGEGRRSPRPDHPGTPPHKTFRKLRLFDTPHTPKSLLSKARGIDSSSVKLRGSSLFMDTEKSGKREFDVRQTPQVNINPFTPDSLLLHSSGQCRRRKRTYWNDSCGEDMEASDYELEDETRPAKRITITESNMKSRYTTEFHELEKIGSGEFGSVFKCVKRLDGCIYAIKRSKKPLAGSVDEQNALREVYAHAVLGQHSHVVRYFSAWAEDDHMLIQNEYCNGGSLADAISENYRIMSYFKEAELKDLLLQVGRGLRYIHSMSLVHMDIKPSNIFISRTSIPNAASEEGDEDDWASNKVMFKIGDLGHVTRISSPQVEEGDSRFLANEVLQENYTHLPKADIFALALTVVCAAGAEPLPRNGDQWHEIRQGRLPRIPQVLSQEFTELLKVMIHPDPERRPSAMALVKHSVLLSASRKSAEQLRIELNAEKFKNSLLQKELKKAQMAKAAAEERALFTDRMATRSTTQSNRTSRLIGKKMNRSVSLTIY
T2 sequence (Q96SW2 whole entry): as the sequence (Q96SW2 whole entry) above
T2 sequence (Q16531 whole entry partner): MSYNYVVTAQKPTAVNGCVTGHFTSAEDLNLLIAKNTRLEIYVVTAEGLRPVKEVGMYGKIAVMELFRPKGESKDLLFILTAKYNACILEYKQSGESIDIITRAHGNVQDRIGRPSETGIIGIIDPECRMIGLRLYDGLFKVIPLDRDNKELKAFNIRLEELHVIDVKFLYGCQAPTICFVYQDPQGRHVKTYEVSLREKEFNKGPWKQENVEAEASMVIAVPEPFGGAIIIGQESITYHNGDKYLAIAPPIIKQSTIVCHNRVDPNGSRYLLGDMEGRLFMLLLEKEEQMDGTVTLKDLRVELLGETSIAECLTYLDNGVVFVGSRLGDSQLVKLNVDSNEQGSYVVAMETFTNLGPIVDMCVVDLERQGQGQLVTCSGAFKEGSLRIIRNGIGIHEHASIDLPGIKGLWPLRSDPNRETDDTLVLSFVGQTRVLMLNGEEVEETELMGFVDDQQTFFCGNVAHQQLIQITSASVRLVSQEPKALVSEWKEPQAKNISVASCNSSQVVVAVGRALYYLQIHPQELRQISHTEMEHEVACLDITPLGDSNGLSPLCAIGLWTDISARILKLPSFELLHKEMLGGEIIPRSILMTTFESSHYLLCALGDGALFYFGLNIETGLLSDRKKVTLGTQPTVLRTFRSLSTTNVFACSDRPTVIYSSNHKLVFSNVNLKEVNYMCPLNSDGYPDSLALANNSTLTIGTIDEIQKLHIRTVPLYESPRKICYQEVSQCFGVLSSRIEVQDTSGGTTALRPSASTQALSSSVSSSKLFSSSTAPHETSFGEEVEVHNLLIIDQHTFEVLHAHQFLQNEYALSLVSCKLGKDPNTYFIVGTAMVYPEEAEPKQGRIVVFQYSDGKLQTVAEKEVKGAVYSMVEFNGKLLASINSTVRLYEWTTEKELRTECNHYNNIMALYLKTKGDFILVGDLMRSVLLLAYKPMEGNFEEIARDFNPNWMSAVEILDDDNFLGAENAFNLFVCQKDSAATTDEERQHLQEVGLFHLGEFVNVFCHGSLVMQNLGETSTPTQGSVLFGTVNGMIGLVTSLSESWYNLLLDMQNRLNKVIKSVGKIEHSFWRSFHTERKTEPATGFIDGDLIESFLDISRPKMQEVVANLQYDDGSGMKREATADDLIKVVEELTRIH
Description: (§1) The effect of the compounds of the present disclosure on the expression of target proteins in cells was detected using conventional Western blot analysis.
(§2) Human peripheral blood mononuclear cells (hPBMCs) at a density of 1×10^6 cells/mL were thawed according to the PBMC Recovery Protocol (Milecell Biotechnologies Inc, Shanghai).
(§3) After 24 hours of compounds treatment, cells were harvested and lysed in RIPA protein lysate containing phosphatase inhibitors on ice for 30-60 min, followed by centrifugation. The supernatant was aspirated as the extracted total cell protein. The protein concentration of the supernatant was determined using the conventional BCA (Bicinchoninic Acid) assay. The supernatant was then mixed with 4× SDS sample loading buffer, denatured at 95° C. for 5 minutes, and then subjected to SDS-PAGE electrophoresis on a polyacrylamide gel. Proteins were then transferred to a nitrocellulose (NC) membrane, blocked at room temperature for 1-2 h, and processed for antibody incubation and detection according to the manufacturer's instructions (Cell Signaling Technology).
(§4) Half-Maximal Degradation Concentration value (the drug concentration required for degrading proteins by 50%, abbreviated as DC50) reads method: comparing the grayscale values of Western blot bands from drug-treated samples with those from blank DMSO-treated controls, and identifying the drug concentration range at which the grayscale value is half that of the DMSO-treated control bands.
(§5) DC50 values can be calculated using ImageJ software to measure grayscale values of Western blot bands from drug-treated samples. The concentration-response curve is fitted to estimate the drug concentration corresponding to half the grayscale value.
(§6) Target protein remaining (%) refers to the percentage of target protein remaining in hPBMC cells after treatment with protein degrader compounds.
(§7) Calculation method for protein remaining (%): Use ImageJ software to measure grayscale values of Western blot bands from drug (protein degrader)-treated samples. The grayscale value of drug-treated bands is divided by that of internal control protein bands, and the resulting quotient is normalized to obtain the relative percentage of remaining target protein after protein degrader treatment.
(§8) Target protein degradation rate (%)=100%−target protein remaining (%).

[3] = target: T3, GSPT1 (Homo sapiens, UniProt P15170+Q96SW2); test: Western-blot assay, substrate protein in hPBMCs; assay type: cell-based; settings: hPBMC cells, 24 hours, tested at 50 nM and 500 nM, table does not say which
T3 construct: endogenous in cells; host or cells: human PBMCs (Milecell Biotechnologies)
T3 sequence (P15170 whole entry): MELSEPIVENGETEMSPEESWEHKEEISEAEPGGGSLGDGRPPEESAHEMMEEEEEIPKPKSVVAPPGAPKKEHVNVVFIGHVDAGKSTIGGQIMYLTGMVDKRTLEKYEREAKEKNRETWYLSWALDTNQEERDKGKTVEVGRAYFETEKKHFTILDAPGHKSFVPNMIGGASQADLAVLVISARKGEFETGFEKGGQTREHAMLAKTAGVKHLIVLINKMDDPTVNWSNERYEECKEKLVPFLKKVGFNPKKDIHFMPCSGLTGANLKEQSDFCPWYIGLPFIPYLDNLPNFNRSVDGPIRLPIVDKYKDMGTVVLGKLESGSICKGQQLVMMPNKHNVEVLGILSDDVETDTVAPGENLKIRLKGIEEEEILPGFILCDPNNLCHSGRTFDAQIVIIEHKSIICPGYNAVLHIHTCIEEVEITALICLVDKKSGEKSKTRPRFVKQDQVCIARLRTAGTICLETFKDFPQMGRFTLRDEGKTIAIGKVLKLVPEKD
T3 sequence (Q96SW2 whole entry): as the sequence (Q96SW2 whole entry) above
T3 sequence (Q16531 whole entry partner): as the sequence (Q16531 whole entry partner) above
Description: as §1, §2, §3, §4, §5, §6, §7, §8

[4] = target: T4, CK1α (Homo sapiens, UniProt P48729+Q96SW2); test: Western-blot assay, substrate protein in hPBMCs; assay type: cell-based; settings: hPBMC cells, 24 hours, tested at 50 nM and 500 nM, table does not say which
T4 construct: endogenous in cells; host or cells: human PBMCs (Milecell Biotechnologies)
T4 sequence (P48729 whole entry): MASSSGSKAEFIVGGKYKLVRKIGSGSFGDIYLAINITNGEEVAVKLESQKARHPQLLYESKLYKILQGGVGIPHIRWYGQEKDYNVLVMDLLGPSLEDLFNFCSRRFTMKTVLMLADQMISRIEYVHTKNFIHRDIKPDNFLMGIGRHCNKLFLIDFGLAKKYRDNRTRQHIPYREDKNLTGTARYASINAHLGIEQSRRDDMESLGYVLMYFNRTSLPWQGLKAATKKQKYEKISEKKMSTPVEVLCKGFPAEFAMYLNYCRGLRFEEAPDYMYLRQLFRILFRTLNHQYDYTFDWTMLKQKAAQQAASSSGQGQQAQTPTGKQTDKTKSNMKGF
T4 sequence (Q96SW2 whole entry): as the sequence (Q96SW2 whole entry) above
T4 sequence (Q16531 whole entry partner): as the sequence (Q16531 whole entry partner) above
Description: as §1, §2, §3, §4, §5, §6, §7, §8

Row | SMILES | IC50 [1] | substrate protein remaining % [2] | substrate protein remaining % [3] | substrate protein remaining % [4]
1 | O=C1CCC(N2Cc3cc(SC4CN(C(c5ccccc5)c5ccccc5)C4)ccc3C2=O)C(=O)N1 (stereo not shown) [GT-06138, 3-(5-((1-benzhydrylazetidin-3-yl)thio)-1-oxoisoindolin-2-yl)piperidine-2,6-dione] | 0.5 to 1 µM | A (0%≤ substrate protein remaining % ≤80%) | A (0%≤ substrate protein remaining % ≤80%) | 
2 | O=C1CCC(N2Cc3cc(OC4CN(CC5=C(c6ccc(Cl)cc6)CCC(F)(F)C5)C4)ccc3C2=O)C(=O)N1 (stereo not shown) [GT-06563, 3-(5-((1-((4′-chloro-4,4-difluoro-3,4,5,6-tetrahydro-[1,1′-biphenyl]-2-yl)methyl)azetidin-3-yl)oxy)-1-oxoisoindolin-2-yl)piperidine-2,6-dione] | 0.5 to 1 µM | A (0%≤ substrate protein remaining % ≤80%) |  | 
3 | CC1(C)CCC(C(=O)N2C[C@H]3CC(Oc4ccc5c(c4)CN(C4CCC(=O)NC4=O)C5=O)C[C@H]3C2)=C(c2ccc(Cl)cc2)C1 (stereo partly drawn) [GT-07019, 3-(5-(((3aR,6aS)-2-(4′-chloro-5,5-dimethyl-3,4,5,6-tetrahydro-[1,1′-biphenyl]-2-carbonyl)octahydro-cyclopenta[c]pyrrol-5-yl)oxy)-1-oxoisoindolin-2-yl)piperidine-2,6-dione] | < 0.5 µM | A (0%≤ substrate protein remaining % ≤80%) |  | 
4 | CC1(C)CCC(C(=O)N2CCC3(CC2)CC(Oc2ccc4c(c2)CN(C2CCC(=O)NC2=O)C4=O)C3)=C(c2ccc(Cl)cc2)C1 (stereo not shown) [GT-07020, 3-(5-((7-(4′-chloro-5,5-dimethyl-3,4,5,6-tetrahydro-[1,1′-biphenyl]-2-carbonyl)-7-azaspiro[3.5]nonan-2-yl)oxy)-1-oxoisoindolin-2-yl)piperidine-2,6-dione] | 0.5 to 1 µM | A (0%≤ substrate protein remaining % ≤80%) | A (0%≤ substrate protein remaining % ≤80%) | 
5 | O=C1CCC(N2Cc3cc(SC4C[C@@H]5CN(C(=O)c6ccccc6-c6ccc(Cl)cc6)C[C@H]5C4)ccc3C2=O)C(=O)N1 (stereo partly drawn) [GT-07023, 3-(5-(((3aS,6aS)-2-(4′-chloro-[1,1′-biphenyl]-2-carbonyl)octahydro-cyclopenta[c]pyrrol-5-yl)thio)-1-oxoisoindolin-2-yl)piperidine-2,6-dione] | < 0.5 µM | A (0%≤ substrate protein remaining % ≤80%) |  | 
6 | CC1(C)CCC(CN2CCC(Oc3ccc4c(c3)CN(C3CCC(=O)NC3=O)C4=O)CC2)=C(c2ccc(Cl)cc2)C1 (stereo not shown) [GT-07061, 3-(5-((1-((4′-chloro-5,5-dimethyl-3,4,5,6-tetrahydro-[1,1′-biphenyl]-2-yl)methyl)piperidin-4-yl)oxy)-1-oxoisoindolin-2-yl)piperidine-2,6-dione] |  |  |  | A (0%≤ substrate protein remaining % ≤80%)
7 | CC1(C)CCC(CN2CCC(Oc3ccc4c(c3)CN(C3CCC(=O)NC3=O)C4=O)CC2)=C(c2ccc(F)cc2)C1 (stereo not shown) [GT-07062, 3-(5-((1-((4′-fluoro-5,5-dimethyl-3,4,5,6-tetrahydro-[1,1′-biphenyl]-2-yl)methyl)piperidin-4-yl)oxy)-1-oxoisoindolin-2-yl)piperidine-2,6-dione] |  |  |  | A (0%≤ substrate protein remaining % ≤80%)
8 | CC1(C)CCC(CN2CC(Oc3cccc4c3C(=O)N(C3CCC(=O)NC3=O)C4)C2)=C(c2ccc(Cl)cc2)C1 (stereo not shown) [GT-07063] |  |  |  | A (0%≤ substrate protein remaining % ≤80%)
9 | COC1(C)CCC(c2ccc(Cl)cc2)=C(CN2CC(Sc3ccc4c(c3)CN(C3CCC(=O)NC3=O)C4=O)C2)C1 (stereo not shown) [GT-07064, 3-(5-((1-((4′-chloro-4-methoxy-4-methyl-3,4,5,6-tetrahydro-[1,1′-biphenyl]-2-yl)methyl)azetidin-3-yl)thio)-1-oxoisoindolin-2-yl)piperidine-2,6-dione] |  |  |  | A (0%≤ substrate protein remaining % ≤80%)
